Where two headings read alike, the source gives them in different places. Bridge positions count the residues as written; N and C are the ends. Square brackets hold non-standard residues; d marks the D form. Peptide text beside a SMILES is read from it. Nle = CCCC[C@H](N)C(=O)O
Biological target: T1, bovine trypsin (Bos taurus, UniProt P00760)
T1 sequence (P00760 24-246): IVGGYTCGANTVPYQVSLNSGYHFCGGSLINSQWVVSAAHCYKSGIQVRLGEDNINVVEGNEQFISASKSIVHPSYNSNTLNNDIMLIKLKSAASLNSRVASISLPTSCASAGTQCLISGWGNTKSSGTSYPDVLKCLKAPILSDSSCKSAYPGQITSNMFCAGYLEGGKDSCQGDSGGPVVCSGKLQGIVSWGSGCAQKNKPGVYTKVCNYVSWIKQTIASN
Test: Trypsin inhibitory activity of peptides (BApNA hydrolysis, OD405; IC50, Ki, residual activity)
Assay type: biochemical
Protocol: The substrates N-succinyl-Ala-Ala-Pro-Phe-p-nitroaniline (AAPFpNA), Nα—Benzoyl-L-arginine-4-nitroaniline hydrochloride (BApNA) and N-succinyl-[…] (AAApNA) are used in competitive binding reaction to determine the inhibitory activities against α-chymotrypsin, bovine trypsin, and porcine pancreatic elastase, respectively. Experiments for α-chymotrypsin and bovine trypsin inhibition were measured in 20 mM CaCl2, 50 mM Tris-HCl buffer (pH 7.8), and that for porcine elastase inhibition was measured in 50 mM Tris-HCl buffer (pH 8.0). The concentration of the peptide was measured using optical density (OD) at 280 nm. The Michaelis constant (Km) of the enzyme hydrolysis substrate is calculated from the initial rate of substrate hydrolysis at 405 nm. The absorbance value of the substrate was measured at 405 nm after complete hydrolysis. All data were processed using nonlinear regression.
• (1) Added 200 μL of reaction buffer (20 mM CaCl2 and 50 mM Tris-HCl, pH 7.8) into the 96-well plate, and preheated at 37° C. for 15 min. Then added 5 μL of different concentrations of substrates (p-Nitroanilide, pNA, 0.5% in DMSO), and mixed by centrifugation at 500 rpm for 1 min. […] The experiment was performed in triplicate. The standard curve was obtained by plotting the OD405 nm value with pNA concentration. • (2) Added 190 μL of reaction buffer (20 mM CaCl2 and 50 mM Tris-HCl, pH 7.8) and 10 μL of 1 μM trypsin into the 96-well plate, and preheated at 37° C. for 15 min. Then added 5 μL of different concentrations of substrates (BApNA, 0.5% in DMSO) and mixed by centrifugation at 500 rpm for 1 min. […] The experiment was performed in triplicate. The corresponding curve was obtained by plotting the OD405 nm value with time. Divided the slope of the curve by the slope of the standard curve and the enzyme concentration to obtain the initial velocity V0 (mM/(min*mM protein). Plotted the initial velocity V0 with the concentration of substrate BApNA using Prism software, and the Michaelis constant Km value of trypsin hydrolyzing BApNA was obtained.
• (1) Added a total 190 μL of reaction buffer (20 mM CaCl2 and 50 mM Tris-HCl, pH 7.8) along with different concentrations of anti-trypsin peptides (BTs) into the pre-cooled 96-well plate, followed by preheating at 37° C., and spined down at 500 rpm for 5 min. Next added 10 μL of 1 μM trypsin, incubated at 37° C., and then spined down at 500 rpm for 10 min. Finally, added 5 μL of 50 mM BApNA, and mixed by centrifugation at 500 rpm for 1 min. The plate was incubated at 37° C. for 260 min, and the absorbance value at 405 nm was measured. The experiment was performed in triplicate. The blank control only contained the reaction buffer and the substrate as the minimum absorption value (Min OD405 nm). The negative control only contained the reaction buffer, the enzyme and the substrate as the maximum absorption value (Max OD405 nm). • (2) In the reaction system of 205 μL, the final concentrations of trypsin and BApNA were 50 nM and 1.22 mM, respectively. • (3) Data statistics
Residual activity of the enzyme (%)=(1−(Max OD405 nm−Sample OD405 nm)/(Max OD405 nm−Min OD405 nm))*100
Plotted the residual activity of the enzyme with […] to obtain the half inhibitory concentration (IC50) of BTs scaffold against trypsin. Then, substituted it into the formula Ki=IC50/(1+S/Km) (S, IC50 and Km were substrate concentration, half inhibitory concentration and Michaelis constant, respectively) to obtain the inhibition constant Ki of BTs scaffold against trypsin.

[1] = Ki=IC50/(1+S/Km), Km 0.33 mM, read-out: Ki
[2] = trypsin 50 nM, BApNA 1.22 mM, read-out: IC50

CC[C@H](C)[C@@H]1NC(=O)[C@H](CO)NC(=O)[C@H](CCCCN)NC(=O)[C@H]([C@@H](C)O)NC(=O)[C@H](C)NC(=O)[C@H](CCCNC(=N)N)NC(=O)CNC(=O)[C@@H](N)CSSC[C@@H](C(=O)N[C@@H](Cc2ccc(O)cc2)C(=O)O)NC(=O)[C@H](CCC(N)=O)NC(=O)[C@@H]2CCCN2C(=O)[C@@H]2CCCN2C1=O [BT12] (H-CGRATKSIPPQCY-OH; disulfide 1-12; N-terminus and C-terminus assumed)
inhibitory activity against trypsin (in words): significant impact on their anti-trypsisn activities | Residual trypsin activity (peptide 0.0488 μM): 100.5 ± 2.0% | Residual trypsin activity (peptide 0.2439 μM): 106.5 ± 3.4% | Residual trypsin activity (peptide 0.98 μM): 107.9 ± 1.4% | Residual trypsin activity (peptide 3.90 μM): 68.3 ± 0.1% | Residual trypsin activity (peptide 5.85 μM): 24.0 ± 1.2% | Residual trypsin activity (peptide 9.76 μM): 0.7 ± 0.1% | Residual trypsin activity (peptide 14.63 μM): 0.3 ± 0.1% | Residual trypsin activity (peptide 19.51 μM): −0.2 ± 0.1%

CCCC[C@@H]1NC(=O)[C@@H](N)CSSC[C@@H](C(=O)N[C@@H](Cc2ccccc2)C(=O)O)NC(=O)[C@H]([C@@H](C)CC)NC(=O)[C@@H]2CCCN2C(=O)[C@@H]2CCCN2C(=O)[C@H]([C@@H](C)CC)NC(=O)[C@H](CO)NC(=O)[C@H](CCCCN)NC(=O)[C@H]([C@@H](C)O)NC(=O)[C@H](C)NC(=O)[C@H](CCCNC(=N)N)NC1=O [BT80] (H-C[Nle]RATKSIPPICF-OH; disulfide 1-12; N-terminus and C-terminus assumed)
Ki [1]: 0.02 µM

CC[C@H](C)[C@@H]1NC(=O)[C@H](CO)NC(=O)[C@H](CCCCN)NC(=O)[C@H]([C@@H](C)O)NC(=O)[C@H](C)NC(=O)[C@H](CCCNC(=N)N)NC(=O)CNC(=O)[C@@H](N)CSSC[C@@H](C(=O)O)NC(=O)[C@H](CCCNC(=N)N)NC(=O)[C@H](C)NC(=O)[C@H](CCC(N)=O)NC(=O)[C@@H]2CCCN2C(=O)[C@@H]2CCCN2C1=O [BT34] (H-CGRATKSIPPQARC-OH; disulfide 1-14)
IC50 [2]: > 50 µM

CC[C@H](C)[C@@H]1NC(=O)[C@@H]2CCCN2C(=O)[C@@H]2CCCN2C(=O)[C@H]([C@@H](C)CC)NC(=O)[C@H](CO)NC(=O)[C@H](CCCCN)NC(=O)[C@H]([C@@H](C)O)NC(=O)[C@H](C)NC(=O)[C@H](CCCNC(=N)N)NC(=O)CNC(=O)[C@@H](N)CSSC[C@@H](C(=O)O)NC(=O)[C@H](Cc2ccccc2)NC(=O)[C@H](C)NC1=O [BT11] (H-CGRATKSIPPIAFC-OH; disulfide 1-14; N-terminus and C-terminus assumed)
inhibitory activity against trypsin (in words): still maintained good inhibitory activity against trypsin | Residual trypsin activity (peptide 0.488 μM): 100.2 ± 3.7% | Residual trypsin activity (peptide 0.7317 μM): 102.4 ± 4.2% | Residual trypsin activity (peptide 0.98 μM): 101.5 ± 5.1% | Residual trypsin activity (peptide 1.561 μM): 79.3 ± 1.0% | Residual trypsin activity (peptide 1.95 μM): 75.8 ± 4.6% | Residual trypsin activity (peptide 2.93 μM): 6.2 ± 3.1% | Residual trypsin activity (peptide 3.90 μM): 4.1 ± 1.0% | Residual trypsin activity (peptide 4.88 μM): 1.4 ± 0.3%

CC[C@H](C)[C@@H]1NC(=O)[C@@H]2CCCN2C(=O)[C@@H]2CCCN2C(=O)[C@H]([C@@H](C)CC)NC(=O)[C@H](CO)NC(=O)[C@H](CCCCN)NC(=O)[C@H]([C@@H](C)O)NC(=O)[C@H](CO)NC(=O)[C@H](CCCNC(=N)N)NC(=O)CNC(=O)[C@@H](N)CSSC[C@@H](C(=O)N[C@@H](Cc2ccccc2)C(=O)O)NC1=O [BT47] (H-CGRSTKSIPPICF-OH; disulfide 1-12; C-terminus assumed)
inhibitory activity against trypsin (in words): good inhibitory activities against trypsin | Ki [1]: 0.01 µM | inhibitory activity against trypsin (in words) (listed as SEQ ID NO: 47): excellent trypsin inhibitory activities | Residual trypsin activity (peptide 0.000098 μM): 103.0 ± 5.2% | Residual trypsin activity (peptide 0.00098 μM): 105.1 ± 3.6% | Residual trypsin activity (peptide 0.0098 μM): 107.9 ± 5.8% | Residual trypsin activity (peptide 0.0488 μM): 57.4 ± 1.1% | Residual trypsin activity (peptide 0.0780 μM): 39.0 ± 3.8% | Residual trypsin activity (peptide 0.098 μM): 5.6 ± 0.7% | Residual trypsin activity (peptide 0.98 μM): 0.2 ± 0.0% | Residual trypsin activity (peptide 9.76 μM): 0.0 ± 0.1% | Residual trypsin activity (peptide 97.56 μM): 0.1 ± 0.0% | IC50 [2]: 0.05 µM

CC[C@H](C)[C@@H]1NC(=O)[C@@H]2CCCN2C(=O)[C@@H]2CCCN2C(=O)[C@H]([C@@H](C)CC)NC(=O)[C@H](CO)NC(=O)[C@H](CCCCN)NC(=O)[C@H]([C@@H](C)O)NC(=O)[C@H](C)NC(=O)[C@H](CCCNC(=N)N)NC(=O)CNC(=O)[C@@H](N)CSSC[C@@H](C(=O)O)NC1=O [BT8] (H-CGRATKSIPPIC-OH; disulfide 1-12 (inferred); N-terminus and C-terminus assumed)
IC50 [2]: > 50 µM

CC[C@H](C)[C@@H]1NC(=O)[C@@H]2CCCN2C(=O)[C@@H]2CCCN2C(=O)[C@H]([C@@H](C)CC)NC(=O)[C@H](CO)NC(=O)[C@H](CCCCN)NC(=O)[C@H]([C@@H](C)O)NC(=O)[C@H](Cc2c[nH]c3ccccc23)NC(=O)[C@H](CCCNC(=N)N)NC(=O)CNC(=O)[C@@H](N)CSSC[C@@H](C(=O)O)NC(=O)[C@H](Cc2ccccc2)NC1=O [BT40] (H-CGRWTKSIPPIFC-OH; disulfide 1-13 (inferred); N-terminus and C-terminus assumed)
IC50 [2]: > 50 µM

CC[C@H](C)[C@@H]1NC(=O)[C@@H]2CCCN2C(=O)[C@@H]2CCCN2C(=O)[C@H]([C@@H](C)CC)NC(=O)[C@H](CO)NC(=O)[C@H](CCCCN)NC(=O)[C@H]([C@@H](C)O)NC(=O)[C@H](Cc2ccc(O)cc2)NC(=O)[C@H](CCCNC(=N)N)NC(=O)CNC(=O)[C@@H](N)CSSC[C@@H](C(=O)N[C@@H](Cc2ccccc2)C(=O)O)NC1=O [BT53] (H-CGRYTKSIPPICF-OH; disulfide 1-12; C-terminus assumed)
IC50: 0.12 µM | Ki: 0.03 µM | inhibitory activity against trypsin (in words): good inhibitory activities against trypsin | inhibitory activity against trypsin (in words) (listed as SEQ ID NO: 53): excellent trypsin inhibitory activities | Residual trypsin activity (peptide 0.000098 μM): 104.2 ± 0.5% | Residual trypsin activity (peptide 0.00098 μM): 108.9 ± 2.0% | Residual trypsin activity (peptide 0.0098 μM): 106.0 ± 0.4% | Residual trypsin activity (peptide 0.0488 μM): 87.4 ± 4.9% | Residual trypsin activity (peptide 0.0585 μM): 84.9 ± 2.2% | Residual trypsin activity (peptide 0.07317 μM): 75.2 ± 2.8% | Residual trypsin activity (peptide 0.098 μM): 63.0 ± 1.9% | Residual trypsin activity (peptide 0.98 μM): 0.5 ± 0.2% | Residual trypsin activity (peptide 9.76 μM): 0.2 ± 0.0% | Residual trypsin activity (peptide 97.56 μM): 0.0 ± 0.1%

CC[C@H](C)[C@@H]1NC(=O)[C@@H](N)CSSC[C@@H](C(=O)N[C@@H](Cc2ccccc2)C(=O)O)NC(=O)[C@H]([C@@H](C)CC)NC(=O)[C@@H]2CCCN2C(=O)[C@@H]2CCCN2C(=O)[C@H]([C@@H](C)CC)NC(=O)[C@H](CO)NC(=O)[C@H](CCCCN)NC(=O)[C@H]([C@@H](C)O)NC(=O)[C@H](C)NC(=O)[C@H](CCCNC(=N)N)NC1=O [BT73] (H-CIRATKSIPPICF-OH; disulfide 1-12; N-terminus and C-terminus assumed)
Ki [1]: 0.03 µM | IC50 [2]: 0.12 µM

From patent publication US20230416329A1, “A PEPTIDE WITH DISULFIDE BONDS AND INHIBITORY ACTIVITY AGAINST SERINE PROTEASES, DERIVED HYBRID PEPTIDES THEREOF, AND USES THEREOF” (INSTITUTE OF MATERIA MEDICA , CHINESE ACADEMY OF MEDICAL …, priority 2020, published 2023)
